This passage reports Emax results from patent publication US7160888B2, “[1,8]naphthyridin-2-ones and related compounds for the treatment of schizophrenia” (Warner Lambert Company LLC, priority 2003, dated 2007).

The first test deals with D2 receptor (Homo sapiens, UniProt P14416). The test is described as follows: [3H]Thymidine uptake assay for D2 intrinsic activity. The class given is cell-based. The following applies: Table 1; test compound 1 μM; 1 μM Quinpirole = 100% intrinsic activity.
D2 receptor, sequence (P14416 whole entry): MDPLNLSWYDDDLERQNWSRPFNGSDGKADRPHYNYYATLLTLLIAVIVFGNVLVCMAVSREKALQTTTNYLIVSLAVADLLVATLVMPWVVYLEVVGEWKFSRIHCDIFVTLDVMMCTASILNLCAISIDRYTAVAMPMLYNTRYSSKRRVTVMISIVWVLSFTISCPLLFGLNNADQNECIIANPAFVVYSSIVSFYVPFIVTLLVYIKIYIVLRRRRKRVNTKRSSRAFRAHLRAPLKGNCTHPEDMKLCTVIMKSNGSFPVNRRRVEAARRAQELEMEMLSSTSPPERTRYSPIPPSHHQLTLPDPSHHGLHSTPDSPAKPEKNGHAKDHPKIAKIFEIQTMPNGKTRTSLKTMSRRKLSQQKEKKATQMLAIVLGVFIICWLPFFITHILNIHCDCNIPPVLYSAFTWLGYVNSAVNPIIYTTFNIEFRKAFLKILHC
Turning to `CC1(C)CC(=O)Nc2nc(OCCCCN3CCN(c4cccc(C5CC5)n4)CC3)ccc21` [Example D22, 7-{4-[4-(6-Cyclopropyl-pyridin-2-yl)-piperazin-1-yl]-butoxy}-4,4-dimethyl-3,4-dihydro-1H-[1,8]naphthyridin-2-one], the Emax – broadly, the greatest response seen or fitted, relative to the assay's reference – at 1 µM was determined as 42%. The same measure, in the same setting: the figure for `O=C1CCc2cc(F)c(OCCCCN3CCN(c4cccc(Cl)c4Cl)CC3)nc2N1` [Example E3, 7-{4-[4-(2,3-Dichloro-phenyl)-piperazin-1-yl]-butoxy}-6-fluoro-3,4-dihydro-1H-[1,8]naphthyridin-2-one] is 31%; for `O=c1ccc2ccc(OCCCCN3CCN(c4ccccc4-c4ccccc4)CC3)nc2[nH]1` [Example B26, 7-[4-(4-Biphenyl-2-yl-piperazin-1-yl)-butoxy]-1H-[1,8]naphthyridin-2-one] it is 23%; for `CC(C)COc1ccccc1N1CCN(CCCCOc2ccc3c(n2)NC(=O)CC3)CC1` [Example A27, 7-{4-[4-(2-Isobutoxy-phenyl)-piperazin-1-yl]-butoxy}-3,4-dihydro-1H-[1,8]naphthyridin-2-one] it is 38%. The same measure, in the same setting: the figure for `O=C1CCc2cnc(OCCCCN3CCN(c4cccc(Cl)c4Cl)CC3)c(Br)c2N1` [Example I8, 8-Bromo-7-{4-[4-(2,3-dichloro-phenyl)-piperazin-1-yl]-butoxy}-3,4-dihydro-1H-[1,6]naphthyridin-2-one] is 25%; for `O=c1ccc2ccc(OCCCCN3CCN(c4ccc(F)cc4)CC3)nc2[nH]1` [Example B13, 7-{4-[4-(4-Fluoro-phenyl)-piperazin-1-yl]-butoxy}-1H-[1,8]naphthyridin-2-one] it is 45%. Same read-out and setting: in the case of `CC(=O)c1ccc2c(N3CCN(CCCCOc4ccc5ccc(=O)[nH]c5n4)CC3)cccc2c1` [Example B63, 7-{4-[4-(6-Acetyl-naphthalen-1-yl)-piperazin-1-yl]-butoxy}-1H-[1,8]naphthyridin-2-one] it was 18%.

Still in this test, the particulars now being: Table 2; test compound 1 μM; 1 μM Quinpirole = 100% intrinsic activity.
In turn, `CC1(C)COc2c(cccc2N2CCN(CCCCOc3ccc4ccc(=O)[nH]c4n3)CC2)C1=O` [Example B16′, 7-{4-[4-(3,3-Dimethyl-4-oxo-chroman-8-yl)-piperazin-1-yl]-butoxy}-1H-[1,8]naphthyridin-2-one] showed an Emax at 1 µM of 4%. `O=c1ccc2cnc(OCCCCN3CCN(c4cccc5c4OC(F)(F)O5)CC3)nc2[nH]1` [Example G7′, 2-{4-[4-(2,2-Difluoro-benzo[1,3]dioxol-4-yl)-piperazin-1-yl]-butoxy}-8H-pyrido[2,3-d]pyrimidin-7-one] came in with a maximum response (Emax) at 1 µM of 38%.

Turning to `O=c1ccc2ccc(OCCCCN3CCN(c4cccc5[nH]ccc45)CC3)nc2[nH]1` [Example B24′, 7-{4-[4-(1H-Indol-4-yl)-piperazin-1-yl]-butoxy}-1H-[1,8]naphthyridin-2-one], the Emax at 1 µM stood at 42%. As for `O=c1ccc2ccc(OCCCCN3CCN(c4cccc5c4OCCO5)CC3)nc2[nH]1` [Example B12′, 7-{4-[4-(2,3-Dihydro-benzo[1,4]dioxin-5-yl)-piperazin-1-yl]-butoxy}-1H-[1,8]naphthyridin-2-one], the maximal effect (Emax) at 1 µM turned out to be 24%. The same measure, in the same setting: the figure for `O=C1CCc2ccc(OCCCCN3CCN(c4cccc5cccnc45)CC3)nc2N1` [Example A34′, 7-[4-(4-Quinolin-8-yl-piperazin-1-yl)-butoxy]-3,4-dihydro-1H-[1,8]naphthyridin-2-one] is 38%; for `CC1(C)CC(=O)Nc2nc(OCCCCN3CCN(c4cccc5ccoc45)CC3)ccc21` [Example C5′, 7-[4-(4-Benzofuran-7-yl-piperazin-1-yl)-butoxy]-4,4-dimethyl-3,4-dihydro-1H-[1,8]naphthyridin-2-one] it is 23%.

`O=C1CCc2ccc(OCCCCN3CCN(c4cccc5c4NC(=O)CC5)CC3)nc2N1` [Example A48′, 7-{4-[4-(2-Oxo-1,2,3,4-tetrahydro-quinolin-8-yl)-piperazin-1-yl]-butoxy}-3,4-dihydro-1H-[1,8]naphthyridin-2-one] had an Emax at 1 µM of 34%.
